# How the values were obtained:
# [1] = test system: ErbB3 mRNA; experiment: ErbB3 mRNA KD in tumor of 15PC3 human prostate cancer xenografted mice; type: in vivo; conditions: 45 mg/kg i.v. q3d×4 (G8)
# Description: (§1) The in vivo efficacy of nanoparticles described herein was evaluated in human prostate cancer xenografted mice. The 15PC3 human prostate tumors were established in nude mice by subcutaneous injection of 5×10^6 cells/mouse into the right auxiliary flank. When tumors reached the average volume of 100 mm^3, the mice were randomly grouped 5 mice per group. The mice of each group were treated with nanoparticle encapsulating antisense ErbB3 oligonucleotides (Sample NP5) or corresponding naked oligonucleotides (Oligo 2). The nanoparticles were given intravenously (i.v.) at 15 mg/kg/dose, 5 mg/kg/dose, 1 mg/kg/dose, or 0.5 mg/kg/dose at q3d×4 for 12 days. The dosage amount is based on the amount of oligonucleotides in the nanoparticles. The naked oligonucleotides were given intraperitoneally (i.p.) at 30 mg/kg/dose or intravenously at 25 mg/kg/dose or 45 mg/kg/dose at q3d×4 for 12 days. The mice were sacrificed twenty four hours after the final dose. Plasma samples were collected from the mice and stored at −20° C. Tumor and liver samples were also collected from the mice. The samples were analyzed for mRNA KD.
# [2] = test system: ErbB3 mRNA; experiment: ErbB3 mRNA KD in liver of 15PC3 human prostate cancer xenografted mice; type: in vivo; conditions: 25 mg/kg/dose i.v. q3d×4 (G7)
# Description: as §1
substance,measurement,setting,value
"Oligo-2: antisense ErbB3 LNA, 5′-TAGcctgtcacttmCTmC-3′, phosphorothioate linkage; naked oligonucleotide (antisense 5'-TAGcctgtcactt^{m}CT^{m}C-3'; LNA, as printed in the source, key not given here)",ErbB3 mRNA expression inhibited in tumor,[1],about 37%
same,ErbB3 mRNA KD activity in liver,[2],about 87%

# Source: patent US20110111044A1, “NANOPARTICLE COMPOSITIONS FOR NUCLEIC ACIDS DELIVERY SYSTEM” (ENZON PHARMACEUTICALS, INC., priority 2008, published 2011)
